One data set deals with P. aeruginosa 3547. Kind of data set: MIC assay, drug-resistant strain. Format: cell-based. The conditions noted are these: Pseudomonas aeruginosa; P. aeruginosa 3547, resistant isolate from otitis media patients; peptides in DMEM supplemented with 10% FBS. From the text:
(§1) Escherichia coli (ATCC 25922) and S. aureus (ATCC 25923) were obtained from American Type Culture Collection (Manassas, VA, USA). Escherichia coli CCARM 1229, E. coli CCARM 1238, S. aureus CCARM 3089, S. aureus 3114, Salmonella typhimurium CCARM 8009, and S. typhimurium CCARM 8013 were obtained from the culture collection of antibiotic-resistant microbes at Seoul Women’s University, Republic of Korea. Pseudomonas aeruginosa 3547 and P. aeruginosa 4007 were resistant strains isolated from hospital patients with otitis media at Chonnam National University, Republic of Korea. The rifampin-resistant S. aureus PBEL 1 and vancomycin-resistant S. aureus PBEL 2 strains used in this study were generated from wild-type S. aureus (ATCC 25923).
(§2) Bacterial cells were incubated within culture media at 37 °C. The peptide antimicrobial activity was determined by the minimal inhibition concentration (MIC) assay. […] The samples were incubated for 18–24 h at 37 °C. After incubation, the minimum inhibitory concentrations (MICs) of the peptides were determined by measuring the absorbance at an optical density of 600 nm (OD600).

Another data set deals with P. aeruginosa 4007. Kind of data set: MIC assay, drug-resistant strain. Format: cell-based. The conditions noted are these: Pseudomonas aeruginosa; P. aeruginosa 4007, resistant isolate from otitis media patients; peptides in DMEM supplemented with 10% FBS.
From the text: as §1, §2

Data set [1] has as its system S. typhimurium CCARM 8013. Kind of data set: MIC assay, drug-resistant strain. To be noted: Salmonella enterica, peptides in DMEM supplemented with 10% FBS. Format: cell-based.
From the text: as §1, §2

Another data set has as its system S. aureus PBEL 2. Briefly: MIC assay, drug-resistant strain. The conditions noted are these: Staphylococcus aureus, PBEL2; S. aureus PBEL 2, vancomycin-resistant (induced); peptides in DMEM supplemented with 10% FBS. The class given is cell-based.
From the text: as §1, §2

In the next data set the test system is S. aureus CCARM 3089. Kind of data set: MIC assay, drug-resistant strain. Format: cell-based. The conditions noted are these: Staphylococcus aureus, CCARM3089, peptides in DMEM supplemented with 10% FBS.
From the text: as §1, §2

The subject of the next data set is S. aureus CCARM 3114. Kind of data set: MIC assay, drug-resistant strain. Format: cell-based. To be noted: Staphylococcus aureus, CCARM3114, peptides in DMEM supplemented with 10% FBS.
From the text: as §1, §2

The subject of data set [2] is S. typhimurium CCARM 8009. Kind of data set: MIC assay, drug-resistant strain. The class given is cell-based. The conditions noted are these: Salmonella enterica, peptides in DMEM supplemented with 10% FBS.
From the text: as §1, §2

Another data set deals with S. aureus PBEL 1. Briefly: MIC assay, drug-resistant strain. Format: cell-based. To be noted: Staphylococcus aureus, PBEL1; S. aureus PBEL 1, rifampin-resistant (induced); peptides in DMEM supplemented with 10% FBS.
From the text: as §1, §2

A further data set relates to E. coli CCARM 1229. Kind of data set: MIC assay, drug-resistant strain. The class given is cell-based. The conditions noted are these: Escherichia coli, CCARM1229, peptides assayed in DMEM supplemented with 10% FBS.
From the text: as §1, §2

The test system of the next data set is E. coli CCARM 1238. Briefly: MIC assay, drug-resistant strain. Format: cell-based. The conditions noted are these: Escherichia coli, CCARM1238, peptides assayed in DMEM supplemented with 10% FBS.
From the text: as §1, §2

Data set [3] concerns sheep red blood cells (sheep RBCs). Briefly: Hemolysis. Format: cell-based. The conditions noted are these: data overlapped with those of HPA3NT3-A2. Here is the method:
Fresh samples of sheep blood defibrinated cells (MBcell, Seoul, Korea) were centrifuged at 800× g and washed with phosphate-buffered saline (PBS) until the supernatant was clear. Serial dilutions (two-fold) of peptide prepared in PBS were plated, and sheep red blood cells (sheep RBCs) were added to a final concentration of 8% (v/v) in a 96-well plate. The samples were incubated for 1 h at 37 °C with gentle agitation and then centrifuged at 800× g for 10 min. The absorbance of the supernatant was measured at 414 nm; each measurement was performed in triplicate and the percentage hemolysis was calculated using Equation (1):% hemolysis = [(Abs414 in the peptide solution − Abs414 in PBS)/(Abs414 in 0.1% Triton-X100 − Abs414 in PBS)] × 100(1) where 100% hemolysis was defined as the absorbance of sheep RBCs containing 1% Triton X-100 and zero hemolysis was the value measured for sheep RBCs alone in PBS [10].

A further data set has as its system S. aureus ATCC 25923. Kind of data set: Resistance development assay. Format: cell-based, Staphylococcus aureus. To be noted: S. aureus ATCC 25923, 12 passages from 1/2 MIC well, DMEM supplemented with 10% fetal bovine serum, MICs in duplicate.
Data set [4] can be described thus: Reverse-phase HPLC retention time (hydrophobicity). Format: physicochemical. To be noted: mean retention time, Jupiter proteo C18 column (250 × 4.6 mm, 90 Å, 4 μm), 280 nm, used by the paper as measure of hydrophobicity. Here is the method: Peptides were synthesized by using a 9-fluorenylmethoxycarbonyl (Fmoc) solid-phase method on Rink amide 4-methyl benzhydrylamine resin (Novabiochem, Darmstadt, Germany) (0.55 mmol/g) using a Liberty microwave peptide synthesizer (CEM, Matthews, NC, USA). To generate N-terminal fluorescently-labeled peptides, resin-bound peptides were treated with 20% (v/v) piperidine in dimethylformamide (DMF) to remove the Fmoc protection groups from the N-terminal amino acids. Rhodamine-SE dye was incubated with resin-bound peptide in DMF (3–4 eq.) containing 5% (v/v) diisopropylethylamine, and gently mixing for 24 h at room temperature in the dark. The resin was washed with dichloromethane (DCM). The peptides were cleaved from the corresponding resins, precipitated with ether, and extracted. The crude peptides were purified by reverse-phase preparative high-performance liquid chromatography (HPLC) on a Jupiter C18 column (250 × 21.2 mm, […], 300 Å; Phenomenex, Torrance, CA, USA) using a 0–60% acetonitrile gradient in water with 0.05% trifluoroacetic acid. The purity of the extracted peptide was then determined by analytical reversed-phase HPLC (wavelength of 280 nm) using a Jupiter proteo C18 column (250 × 4.6 mm, 90 Å, 4 μm). The molecular masses of the peptides were confirmed on a matrix-assisted laser desorption ionization mass spectrometer (Kratos Analytical, Kyoto, Japan).

Data set [5] concerns PE/PG (7:3, w/w) small unilamellar vesicle (SUV) liposomes. Kind of data set: Binding assay with SUV liposomes by CD. To be noted: 50 μM peptide, 300 μM SUVs, 10 mM HEPES buffer (pH 7.4), 25 °C, n = 3. The protocol:
(§3) SUVs were prepared by drying of phosphatidylethanolamine (PE)/phosphatidyl glycerol (PG) (7:3, w/w) or phosphatidylcholine (PC)/sphingomyelin (SM) (2:1, w/w) under nitrogen, suspension by vortex mixing in 10 mM HEPES buffer (pH 7.4), and sonication. To prepare the SUVs, the lipid diffusions were sonicated in a bath-type sonicator for 20 min. Next, the suspensions of preparation vesicles were extruded 10 times through polycarbonate membranes ([…] pores). The concentration of SUV liposomes was determined using a standard phosphate assay. Circular dichroism (CD) spectra were recorded at 25 °C on a Jasco 810 spectropolarimeter. The peptide (50 μM) solution was added to 400 μL of 10 mM HEPES buffer or to 300 μM SUVs. At least three scans were acquired at 250 to 190 nm.

For data set [6], the system named is PC/SM (2:1, w/w) small unilamellar vesicle (SUV) liposomes. Briefly: Binding assay with SUV liposomes by CD. The conditions noted are these: 50 μM peptide, 300 μM SUVs, 10 mM HEPES buffer (pH 7.4), 25 °C, n = 3. The protocol: as §3
Data set [7] concerns sheep red blood cells (sheep RBCs). To be noted: at 250 μM; cited from earlier work. The protocol:
(§4) Previously, we determined the properties of HPA3NT3 as an antimicrobial peptide. This peptide has an amphipathic helical structure, strong antimicrobial activity, and cytotoxic ability at 250 μM (sheep RBCs, 68.4%; HaCaT cells, 85.1%). This peptide was designed to have low cytotoxicity at higher concentrations and was generated by substituting phenylalanine with alanine and lysine (F1A, F8A, and N13K) to enhance its antimicrobial activity by increasing the net positive charge.

Data set [8] deals with HaCa T (human keratinocyte) cells. The conditions noted are these: at 250 μM; cited from earlier work. Here is the method: as §4

As a reminder, the MIC is the least concentration at which growth counts as inhibited.

Converted amounts (≈) assume the structure as drawn. Residues, ends and D or L forms follow the SMILES beside them. No end group written: not given here.

Description for S. aureus ATCC 25923: Daily MICs were determined over 15 days for each agent using cells collected from the well determined as having half the MIC (1/2 MIC well). Briefly, cells from the 1/2 MIC well from the preceding day’s assay plate were resuspended and the OD600 was measured. The suspensions were then adjusted to achieve a bacterial concentration of 5 × 10^5 cfu/mL in DMEM supplemented with 10% fetal bovine serum and then mixed with each agent at the appropriate concentration. All MICs were determined in duplicate [26].

On to `CC1(C)S[C@@H]2[C@H](NC(=O)[C@H](N)c3ccccc3)C(=O)N2[C@H]1C(=O)O` [Amp, ampicillin], for which the MIC (with P. aeruginosa 3547; with P. aeruginosa 4007; in data set [1]; against S. aureus PBEL 2; against S. aureus CCARM 3089; against S. aureus CCARM 3114) was above 512 µM each time. For the same compound, the MIC (in data set [2]; in the data set on S. aureus PBEL 1) was above 512 µM in each case.
As to `O=C(O)c1cn(C2CC2)c2cc(N3CCNCC3)c(F)cc2c1=O` [Cip, ciprofloxacin], the MIC against P. aeruginosa 3547, against P. aeruginosa 4007, against S. aureus PBEL 2, in the data set on S. aureus CCARM 3089, against S. aureus CCARM 3114 and in the data set with S. aureus PBEL 1 was above 512 µM in each case.
`CC[C@H]1OC(=O)[C@H](C)[C@@H](O[C@H]2C[C@@](C)(OC)[C@@H](O)[C@H](C)O2)[C@H](C)[C@@H](O[C@@H]2O[C@H](C)C[C@H](N(C)C)[C@H]2O)[C@](C)(O)C[C@@H](C)C(=O)[C@H](C)[C@@H](O)[C@]1(C)O` [Ery, erythromycin]: the minimum inhibitory concentration (MIC) was 256 µM (≈ 188 µg/mL) in the data set with E. coli CCARM 1229; 256 µM (≈ 188 µg/mL) in the data set on E. coli CCARM 1238; above 512 µM in the data set with P. aeruginosa 3547; above 512 µM with P. aeruginosa 4007; 128 µM (≈ 93.9 µg/mL) in data set [1]; above 512 µM in the data set with S. aureus PBEL 2. Also, the MIC with S. aureus CCARM 3089 is above 512 µM; in the data set on S. aureus CCARM 3114, above 512 µM; in data set [2], 256 µM (≈ 188 µg/mL); against S. aureus PBEL 1, above 512 µM.
Regarding `CC[C@H](C)[C@H](NC(=O)[C@@H](CCCCN)NC(=O)[C@@H](CCCCN)NC(=O)[C@H](C)NC(=O)[C@H](CC(C)C)NC(=O)[C@@H](CCCCN)NC(=O)[C@@H](CCCCN)NC(=O)[C@H](CC(C)C)NC(=O)[C@H](CCCNC(=N)N)NC(=O)[C@@H](CCCCN)NC(=O)[C@H](C)N)C(=O)N[C@@H](Cc1c[nH]c2ccccc12)C(=O)N[C@H](CCCCN)C(=O)N[C@@H](Cc1c[nH]c2ccccc12)C(=O)N[C@H](CCCCN)C(N)=O` [HPA3NT3-A2D] (HELM PEPTIDE1{A.[dK].R.L.[dK].[dK].L.A.[dK].[dK].I.W.[dK].W.[dK].[am]}$$$$V2.0; N-terminus assumed), the “hemolysis against sheep RBCs (in words)” value in data set [3] is “non-hemolysis”. In addition, in the data set with S. aureus ATCC 25923, the “increase in MIC (resistance development)” value was “no change in the MIC”. The “Retention Time” value in [4] was determined as 11.97 min. For the same compound, the “interaction with PE/PG liposome (CD)” value in data set [5] is “low levels of α-helical structures”. For the same compound, in [6], the “interaction with PC/SM liposome (CD)” value is “low levels of α-helical structures”.
On to `CO[C@H]1/C=C/O[C@@]2(C)Oc3c(C)c(O)c4c(O)c(c(/C=N/N5CCN(C)CC5)c(O)c4c3C2=O)NC(=O)/C(C)=C\C=C\[C@H](C)[C@H](O)[C@@H](C)[C@@H](O)[C@@H](C)[C@H](OC(C)=O)[C@@H]1C` [rifampin], for which, in the data set on S. aureus ATCC 25923, the “increase in MIC (resistance development)” value stood at 8192 fold.
As to FKRLKKLFKKIWNWK-NH2 [HPA3NT3], the “hemolytic activity against sheep RBCs” value in data set [7] is given as 68.4%. In addition, the “toxicity against HaCaT cells” value in data set [8] is recorded as 85.1%. Also, the “Retention Time” value in data set [4] came out at 20.94 min. Besides, the “interaction with PE/PG liposome (CD)” value in data set [5] was “strongest interaction and α-helical structure”. In addition, the “interaction with PC/SM liposome (CD)” value in data set [6] was “strongest interaction and α-helical structure”.
